According to ChEMBL document CHEMBL2176906, “Diterpenoids isolated from Sideritis species protect astrocytes against oxidative stress via Nrf2” (J Nat Prod, 2012):
Activity calls are given as the source filed them. The rule behind the calls is not given here.

Columns and labels:
[1] = Cytotoxicity against human U373MG cells assessed as dye reduction at 1 to 10 uM after 24 hrs by MTT assay; assay type: cell-based, U-373MG ATCC; details: read-out: Activity
[2] = target: T1, Nuclear factor erythroid 2-related factor 2 (Homo sapiens) (UniProt Q16236); assay: Induction of Nrf2-mediated CAT protein expression in H2O2-stimulated human U373MG cells preincubated at 5 uM for 24 hrs before H2O2 challenge by Western blot method; assay type: cell-based; details: U-373MG ATCC
T1 sequence (whole entry): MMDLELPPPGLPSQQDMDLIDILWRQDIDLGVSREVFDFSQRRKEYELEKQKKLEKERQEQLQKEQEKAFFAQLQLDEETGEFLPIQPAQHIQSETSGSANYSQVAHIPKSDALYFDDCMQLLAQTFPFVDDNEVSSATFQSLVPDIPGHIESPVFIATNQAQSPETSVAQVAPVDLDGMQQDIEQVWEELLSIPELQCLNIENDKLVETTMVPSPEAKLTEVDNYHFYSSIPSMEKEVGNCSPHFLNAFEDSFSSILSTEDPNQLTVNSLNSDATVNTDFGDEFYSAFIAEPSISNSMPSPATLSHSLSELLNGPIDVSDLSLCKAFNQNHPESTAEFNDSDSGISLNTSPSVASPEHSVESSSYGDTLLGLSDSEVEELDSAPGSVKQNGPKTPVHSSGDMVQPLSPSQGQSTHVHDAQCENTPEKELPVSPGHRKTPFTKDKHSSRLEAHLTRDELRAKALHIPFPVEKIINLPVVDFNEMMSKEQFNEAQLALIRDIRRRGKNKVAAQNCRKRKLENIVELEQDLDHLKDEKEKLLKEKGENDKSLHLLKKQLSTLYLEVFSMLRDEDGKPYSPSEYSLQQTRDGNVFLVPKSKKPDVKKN

[3] = target: T1, Nuclear factor erythroid 2-related factor 2 (Homo sapiens); assay: Induction of Nrf2-mediated GPx protein expression in H2O2-stimulated human U373MG cells preincubated at 10 uM for 24 hrs before H2O2 challenge by Western blot method; assay type: cell-based; details: U-373MG ATCC
[4] = target: T1, Nuclear factor erythroid 2-related factor 2 (Homo sapiens); assay: Induction of Nrf2-mediated GPx protein expression in H2O2-stimulated human U373MG cells preincubated at 5 uM for 24 hrs before H2O2 challenge by Western blot method; assay type: cell-based; details: U-373MG ATCC
[5] = target: T1, Nuclear factor erythroid 2-related factor 2 (Homo sapiens); assay: Induction of Nrf2-mediated SOD protein expression in H2O2-stimulated human U373MG cells preincubated at 10 uM for 24 hrs before H2O2 challenge by Western blot method; assay type: cell-based; details: U-373MG ATCC
U373 MG [6] = assay: Induction of Nrf2 nuclear protein expression in H2O2-stimulated human U373MG cells preincubated at 5 uM for 24 hrs before H2O2 challenge by Western blot method; assay type: functional, cell-based; details: U-373MG ATCC
U373 MG [7] = assay: Induction of HO-1 activity in human U373MG cells assessed as bilirubin production per mg protein preincubated at 10 uM for 24 hrs before H2O2 challenge by fluorimetric method (reference value: 19.6 +/-3.5 pmol/hr/mg protein); assay type: functional, U-373MG ATCC
U373 MG [8] = assay: Induction of total GPx activity in human U373MG cells assessed as […] per mg protein preincubated at 10 uM for 24 hrs before H2O2 challenge by fluorimetric method (reference value: 58.5 +/- 5.1 nmol/min/mg protein); assay type: functional, U-373MG ATCC
U373 MG [9] = assay: Induction of selenium-dependent GPx activity in human U373MG cells assessed as […] per mg protein preincubated at 10 uM for 24 hrs before H2O2 challenge by fluorimetric method (reference value: 14.7 +/- 2.9 nmol/min/mg protein); assay type: functional, U-373MG ATCC
U373 MG [10] = assay: Induction of selenium-dependent GPx activity in human U373MG cells assessed as […] per mg protein preincubated at 5 uM for 24 hrs before H2O2 challenge by fluorimetric method (reference value: 14.7 +/- 2.9 nmol/min/mg protein); assay type: functional, U-373MG ATCC
U373 MG [11] = assay: Induction of Glutathione reductase activity in human U373MG cells assessed as […] per mg protein preincubated at 10 uM for 24 hrs before H2O2 challenge by fluorimetric method (reference value: 9.3 +/- 2.2 nmol/min/mg protein); assay type: functional, U-373MG ATCC
U373 MG [12] = assay: Induction of Glutathione reductase activity in human U373MG cells assessed as […] per mg protein preincubated at 5 uM for 24 hrs before H2O2 challenge by fluorimetric method (reference value: 9.3 +/- 2.2 nmol/min/mg protein); assay type: functional, U-373MG ATCC
U373 MG [13] = assay: Induction of SOD activity in human U373MG cells assessed per mg protein preincubated at 10 uM for 24 hrs before H2O2 challenge by fluorimetric method (reference value: 14.2 +/- 3 UI/mg protein); assay type: functional, U-373MG ATCC
U373 MG [14] = assay: Induction of SOD activity in human U373MG cells assessed per mg protein preincubated at 5 uM for 24 hrs before H2O2 challenge by fluorimetric method (reference value: 14.2 +/- 3 UI/mg protein); assay type: functional, U-373MG ATCC
U373 MG [15] = assay: Induction of CAT activity in human U373MG cells assessed per mg protein preincubated at 10 uM for 24 hrs before H2O2 challenge by fluorimetric method (reference value: 18.9 +/- 0.4 UI/mg protein); assay type: functional, U-373MG ATCC
U373 MG [16] = assay: Induction of CAT activity in human U373MG cells assessed per mg protein preincubated at 5 uM for 24 hrs before H2O2 challenge by fluorimetric method (reference value: 18.9 +/- 0.4 UI/mg protein); assay type: functional, U-373MG ATCC
U373 MG [17] = assay: Inhibition of AAPH-induced oxidative stress in human U373MG cells assessed as peroxy radical scavenging activity at 10 uM by ORAC assay; assay type: functional, cell-based; details: U-373MG ATCC
U373 MG [18] = assay: Inhibition of H2O2-induced oxidative stress in human U373MG cells assessed as GSH/GSSG ratio at 5 uM (reference value: 1.8 +/- 0.1 ); assay type: functional, U-373MG ATCC
U373 MG [19] = assay: Inhibition of H2O2-induced oxidative stress in human U373MG cells assessed as GSH/GSSG ratio at 10 uM (reference value: 1.8 +/- 0.1 ); assay type: functional, U-373MG ATCC
U373 MG [20] = assay: Inhibition of H2O2-induced oxidative stress in human U373MG cells assessed as GSSG level per mg protein at 10 uM by fluorimetric method (reference value: 9.2 +/- 0.9 nmol/mg protein); assay type: functional, U-373MG ATCC
U373 MG [21] = assay: Inhibition of H2O2-induced oxidative stress in human U373MG cells assessed as GSSG level per mg protein at 5 uM by fluorimetric method (reference value: 9.2 +/- 0.9 nmol/mg protein); assay type: functional, U-373MG ATCC
U373 MG [22] = assay: Inhibition of H2O2-induced oxidative stress in human U373MG cells assessed as GSH level per mg protein at 10 uM by fluorimetric method (reference value: 17.1 +/- 1.7 nmol/mg protein); assay type: functional, U-373MG ATCC
U373 MG [23] = assay: Inhibition of H2O2-induced lipid peroxidation in human U373MG cells assessed as reduction in MDA levels per mg protein at 10 uM by HPLC analysis (reference value: 0.95 +/- 0.03 nmol/mg protein); assay type: functional, U-373MG ATCC
U373 MG [24] = assay: Inhibition of H2O2-induced lipid peroxidation in human U373MG cells assessed as reduction in MDA levels per mg protein at 5 uM by HPLC analysis (reference value: 0.95 +/- 0.03 nmol/mg protein); assay type: functional, U-373MG ATCC
U373 MG [25] = assay: Induction of ROS production in human U373MG cells at 10 uM after 24 hrs by DCFH-DA assay; assay type: functional, cell-based; details: U-373MG ATCC
U373 MG [26] = assay: Induction of ROS production in human U373MG cells at 5 uM after 24 hrs by DCFH-DA assay; assay type: functional, cell-based; details: U-373MG ATCC

SMILES	viability at 24 h, up to 10 µM [1] [%]	Activity [2]	Activity [3]	Activity [4]	Activity [5]	Activity (U373 MG [6])	Activity (U373 MG [7]) [pmol/h]	Activity (U373 MG [8]) [nmol/min]	Activity (U373 MG [9]) [nmol/min]	Activity (U373 MG [10]) [nmol/min]	Activity (U373 MG [11]) [nmol/min]	Activity (U373 MG [12]) [nmol/min]	Activity (U373 MG [13]) [IU]	Activity (U373 MG [14]) [IU]	Activity (U373 MG [15]) [IU]	Activity (U373 MG [16]) [IU]	Activity (U373 MG [17])	Ratio (U373 MG [18])	Ratio (U373 MG [19])	Activity (U373 MG [20]) [nmol]	other results
CC1(C)CCC[C@H]2C1=CC[C@H]1C[C@@](C)([C@@H](O)CO)C[C@@H](O)[C@@]12C [LAGASCATRIOL]	90	Active	Active	Active	Active	Active	32.6	85.2	27.1	22.8	20.6	15.8	23.9	22.8	23.9	24.2	inactive	3.8	4.2	7	Activity (U373 MG [21]): 7.1 nmol; Activity (U373 MG [22]): 30 nmol; Activity (U373 MG [23]): 0.57 nmol; Activity (U373 MG [24]): 0.6 nmol; Activity (U373 MG [25]): inactive; Activity (U373 MG [26]): inactive
CC1(C)CCC[C@]2(C)[C@@H]1C[C@H](O)[C@@]13C=C[C@@](CO)(C1)[C@H](O)C[C@@H]23 [CONCHITRIOL]	90	inactive	inactive	inactive	inactive	inactive	17.8	52.6	19.4	17.6	10.2	8.2	18.8	15	17.4	18.8	inactive	2	2.3	8.6	Activity (U373 MG [21]): 8.9 nmol; Activity (U373 MG [22]): 19.8 nmol; Activity (U373 MG [23]): 0.87 nmol; Activity (U373 MG [24]): 0.91 nmol; Activity (U373 MG [25]): inactive; Activity (U373 MG [26]): inactive
C=CC(=C)CC[C@H]1[C@]2(C)CCC[C@](C)(CO)[C@H]2[C@H](O)C[C@]1(C)O [ANDALUSOL]	90	Active	Active	Active	Active	Active	33.6	82.4	29.9	23.9	19.7	19.1	26	24.7	23.7	22.1	inactive	5.1	5.7	6.8	Activity (U373 MG [21]): 7 nmol; Activity (U373 MG [22]): 39.8 nmol; Activity (U373 MG [23]): 0.51 nmol; Activity (U373 MG [24]): 0.62 nmol; Activity (U373 MG [25]): inactive; Activity (U373 MG [26]): inactive
